Experimental data from PubChem BioAssay (NCI).
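Compound exposure: 48 hours, 5 concentrations, 96-well plates. GI50 marks 50% less growth. TGI marks complete inhibition of growth.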

Legend:
Assay in all cases: NCI-60 cell line screen, 48 h
HOP-62 NSCLC = system: HOP-62 NSCLC
CCRF-CEM leukemia = system: CCRF-CEM leukemia
HT29 colon = system: HT29 colon
DU-145 prostate = system: DU-145 prostate
HCT-15 colon = system: HCT-15 colon
NCI-H460 lung = system: NCI-H460 lung
U251 CNS = system: U251 CNS
UACC-62 melanoma = system: UACC-62 melanoma
MCF7 breast = system: MCF7 breast
MOLT-4 leukemia = system: MOLT-4 leukemia
A549 NSCLC = system: A549 NSCLC
T-47D breast = system: T-47D breast
SK-MEL-28 melanoma = system: SK-MEL-28 melanoma
SF-268 CNS = system: SF-268 CNS
RPMI-8226 leukemia = system: RPMI-8226 leukemia
NCI-H226 lung = system: NCI-H226 lung
PC-3 prostate = system: PC-3 prostate
UACC-257 melanoma = system: UACC-257 melanoma
OVCAR-5 ovarian = system: OVCAR-5 ovarian
SK-MEL-2 melanoma = system: SK-MEL-2 melanoma
COLO 205 colon = system: COLO 205 colon
HL-60(TB) leukemia = system: HL-60(TB) leukemia
HCC-2998 colon = system: HCC-2998 colon
TK-10 renal = system: TK-10 renal
EKVX NSCLC = system: EKVX NSCLC
HS 578T breast = system: HS 578T breast
SN12C renal = system: SN12C renal
MDA-MB-231 breast = system: MDA-MB-231 breast
K-562 leukemia = system: K-562 leukemia

`C[C@]12C3CC[C@@]4(CO)C[C@]3(CCC1[C@](C)(C(=O)O)CC[C@@H]2O)CC4=O` (stereo partly drawn) showed a GI50 (HOP-62 NSCLC) greater than 100 µM, a TGI (HOP-62 NSCLC) greater than 100 µM and a GI50 (CCRF-CEM leukemia) greater than 100 µM. The TGI (CCRF-CEM leukemia) was greater than 100 µM, the GI50 (HT29 colon) was greater than 100 µM and the TGI (HT29 colon) was greater than 100 µM. For the same compound, the GI50 (DU-145 prostate) was greater than 100 µM, the TGI (DU-145 prostate) was greater than 100 µM and the GI50 (HCT-15 colon) was greater than 100 µM. It also gave a TGI (HCT-15 colon) greater than 100 µM, a GI50 (NCI-H460 lung) greater than 100 µM and a TGI (NCI-H460 lung) greater than 100 µM. For the same compound, the GI50 (U251 CNS) was greater than 100 µM, the TGI (U251 CNS) was greater than 100 µM and the GI50 (UACC-62 melanoma) was greater than 100 µM. It also gave a TGI (UACC-62 melanoma) greater than 100 µM, a GI50 (MCF7 breast) greater than 100 µM and a TGI (MCF7 breast) greater than 100 µM. The GI50 (MOLT-4 leukemia) was greater than 100 µM, the TGI (MOLT-4 leukemia) was greater than 100 µM and the GI50 (A549 NSCLC) was greater than 100 µM. It also gave a TGI (A549 NSCLC) greater than 100 µM, a GI50 (T-47D breast) greater than 100 µM and a TGI (T-47D breast) greater than 100 µM. It also gave a GI50 (SK-MEL-28 melanoma) greater than 100 µM, a TGI (SK-MEL-28 melanoma) greater than 100 µM and a GI50 (SF-268 CNS) greater than 100 µM. For the same compound, the TGI (SF-268 CNS) was greater than 100 µM, the GI50 (RPMI-8226 leukemia) was greater than 100 µM and the TGI (RPMI-8226 leukemia) was greater than 100 µM. The GI50 (NCI-H226 lung) was greater than 100 µM, the TGI (NCI-H226 lung) was greater than 100 µM and the GI50 (PC-3 prostate) was greater than 100 µM. The TGI (PC-3 prostate) was greater than 100 µM, the GI50 (UACC-257 melanoma) was greater than 100 µM and the TGI (UACC-257 melanoma) was greater than 100 µM. The GI50 (OVCAR-5 ovarian) was greater than 100 µM, the TGI (OVCAR-5 ovarian) was greater than 100 µM and the GI50 (SK-MEL-2 melanoma) was greater than 100 µM. For the same compound, the TGI (SK-MEL-2 melanoma) was greater than 100 µM, the GI50 (COLO 205 colon) was greater than 100 µM and the TGI (COLO 205 colon) was greater than 100 µM. The GI50 (HL-60(TB) leukemia) was greater than 100 µM, the TGI (HL-60(TB) leukemia) was greater than 100 µM and the GI50 (HCC-2998 colon) was greater than 100 µM. For the same compound, the TGI (HCC-2998 colon) was greater than 100 µM, the GI50 (TK-10 renal) was greater than 100 µM and the TGI (TK-10 renal) was greater than 100 µM. The GI50 (EKVX NSCLC) was greater than 100 µM, the TGI (EKVX NSCLC) was greater than 100 µM and the GI50 (HS 578T breast) was greater than 100 µM. It also gave a TGI (HS 578T breast) greater than 100 µM, a GI50 (SN12C renal) greater than 100 µM and a TGI (SN12C renal) greater than 100 µM. For the same compound, the GI50 (MDA-MB-231 breast) was greater than 100 µM, the TGI (MDA-MB-231 breast) was greater than 100 µM and the GI50 (K-562 leukemia) was greater than 100 µM. For the same compound, the TGI (K-562 leukemia) was greater than 100 µM.
